The text below walks through data of patent US20210038668A1, “TRADITIONAL CHINESE MEDICINE COMPOSITION FOR PREVENTING AND/OR TREATING ISCHEMIC REPERFUSION INJURY” (TASLY PHARMACEUTICAL GROUP CO., LTD., priority 2018, published 2021).

Common to all, as to assay type: in vivo, C57BL/6 mice
In assay [1] the test system is TUNEL positive cells of cerebral cortex in penumbra. In words: TUNEL staining of brain tissue. Conditions: brain tissue 24 hours after administration; tPA 10 mg/kg alone; T541 20 mg/kg + tPA 10 mg/kg. The method, then:
After reperfused for 24 hours, mice were killed to take brain, so as to observe the degree of cerebral hemorrhage and infarct size, measure the hemoglobin content in brain tissues after bleeding, detect dry/wet weight ratio and Evans Blue leakage of brain tissues, reflect the condition of tissue edema, observe the severity order of apoptosis by TUNEL staining brain tissues, observe the change of blood brain barrier of the blood vessel when injured by making Western blotting analysis on connexins Occludin, JAM-1, ZO-1, VE-cadherin and laminin, namely, the component of basement membrane and by conducting immunofluorescent staining on partial connexins and laminin, detect the change of the structure after cerebral ischemia reperfusion by a scanning electron microscope and IEM, and measure the change on the activity of brain tissues MDA, 8-OHdG, ATP/ADP/AMP and mitochondrial complexes I, II and IV by enzyme-linked immunosorbent assay (ELISA).

The next assay concerns Laminin. In words: Western blotting of Laminin, basement membrane. Conditions: brain tissue 24 hours after administration, sham = 1.00; tPA 10 mg/kg alone; T541 20 mg/kg + tPA 10 mg/kg. The method, then: (§1) After reperfused for 24 hours, mice were perfused by normal saline; Western blotting analysis was conducted to the penumbra field of infarcted right cerebral cortex. After perfused, mice brain tissue was taken out; cerebellum and prefrontal lobe were cut off; the brain tissue of right brain close to 1 cm of the central joint of left and right hemispheres along the sagittal view; infarcted penumbra field of the rest tissues was cut off along an 45° angle; the cerebral cortex of the penumbra field was peeled off and preserved at low temperature. Right cerebral cortex was taken and added 1×RIPA lysate and a Cocktail protease inhibitor (1:100, Cell Signaling Technology, US) for full pyrolysis and ultrasonic treatment, and then 17000 g were centrifuged for 30 minutes. Supernatant was taken and added 5×loading buffer by volume, boiled for 20 minutes in boiling water, and then preserved at −80° C. Excessive supernatant was taken out and quantified by a BCA protein quantification liquor (ThermoScientific, US) to measure absorbance value at 560 nm of ELIASA and to calculate the protein concentration according to a standard curve. […] The density of electrophoretic strips was analyzed by an image analysis software Quantityone. […]

A further assay has as its system JAM-1. In words: Western blotting of JAM-1, cortex of ischemic penumbra. The following applies: brain tissue 24 hours after administration, sham = 1.00; tPA 10 mg/kg alone; T541 20 mg/kg + tPA 10 mg/kg. The protocol: as §1
On the technique in general: Immunoblotting shows a protein as a band on a membrane.

The subject of another assay is cerebral hemorrhage. In words: Hemoglobin in right hemisphere tissue (cerebral hemorrhage). Conditions: 24 h after administration, tPA 10 mg/kg alone, T541 20 mg/kg + tPA 10 mg/kg. The method, then: After reperfused for 24 hours, mice were perfused via heart by a PBS buffer precooled at 4° C. and separated brain via craniotomy; the brain was cut from front to back into 5 slices in a brain stereotaxic apparatus; bleeding condition was rapidly shoot by a stereoscopic microscope; then slices were stored at −80° C.; and hemoglobin was measured by a hemoglobin spectrophotometry cassette.

Assay [2] has as its system blood flow of cerebral cortex. In words: Cerebral blood flow by Laser Doppler Flowmetry. The method, then: Mice were anesthetized via intraperitoneal injection by pentobarbital sodium (2%, 45 mg/kg), and neck kin was sterilized. A median incision was cut on the neck, exposed and isolated to obtain arteria carotis communis; a waterproof cushion was used to isolate arteria carotis communis with the length of about 2.5-3 mm from surrounding tissues. The isolated arteria carotis communis was wrapped by a filter paper soaked by 10% FeCl3 for about 1 mm (width), and the filter paper was removed 3 minutes later, the outside of blood vessel was washed by 0.9% normal saline. The waterproof cushion was removed. The neck incision was sutured. The start of Fe3+ stimulation was defined as the beginning of ischemia, and those mice meeting the following conditions were selected into the group: the blood vessel was blocked at the maximum diameter of the neck thrombus 10 minutes after ischemia; the blood flow of the carotid artery distal end was less than 20% of the base value 15 minutes after ischemia; and the thrombus was stable 4.5 hours after ischemia (before reperfusion); the carotid artery vessel at 60% and more of the diameter was blocked by the maximum diameter of the thrombus.
Mice were treated by medicaments or normal saline according to random grouping results 4.5 hours after ischemia. Mice femoral vein was intubated, and left femoral vein was injected tPA (tissue plasminogen activator) or normal saline; right femoral vein was injected the traditional Chinese medicinal composition of the present invention or normal saline; 10% of the total dose was injected via an injection pump, and the rest 90% were continuously injected intravenously for 1 hour with the rate of 0.1 ml/h. Three proportion groups were selected to the traditional Chinese medicinal composition of the present invention respectively below:
A computer-linked Laser Doppler Flowmetry was used to measure the blood flow of cerebral cortex in the dominant region of bilateral middle cerebral arteries. Anesthetized mice were placed on a board in supine position; skin on the parietal bone of both sides was cut to fully expose the parietal bone; a computer-linked low-energy He—Ne laser probe was placed away 16-18 cm on the parietal bone to detect the blood flow of pia mater in the blood supply region of bilateral middle cerebral arteries of mice before ischemia (namely, a base value), 10 minutes after ischemia, 4.5 hours after ischemia (namely, before reperfusion), 1 hour after reperfusion, 2 hours after reperfusion and 24 hours after reperfusion. A cerebral blood flow analysis software LDPIwin 3.1 (PeriScan PIM3 System, PERIMED, Stockholm, Sweden) was used to calculate the blood flow of cerebral cortex in the same region dominated by bilateral MCA.

The mark [3] stands for this setting: before administration, groups: tPA 10 mg/kg alone, T541 20 mg/kg, T141 12 mg/kg, T582 15 mg/kg each + tPA 10 mg/kg.
Setting [4] is: iv, tPA 10 mg/kg alone, T541 20 mg/kg, T141 12 mg/kg, T582 15 mg/kg each + tPA 10 mg/kg.

On to “tPA: tissue-type plasminogen activator (tPA) for thrombolysis”, for which the “TUNEL positive cell counting” value in assay [1] turned out to be 27.14 ± 1.77. In the assay with Laminin, the Laminin content came to 0.47 ± 0.06. Moreover, the JAM-1/β-actin in the assay with JAM-1 is recorded as 0.52 ± 0.04. Also, the Hemoglobin in the assay on cerebral hemorrhage was 13.55 ± 3.72. Moreover, in assay [2] (setting [3]), the “Cerebral blood flow, 10 minutes after FeCl3 simulation” value is on record as 55.20 ± 5.69 and the “Cerebral blood flow, Before FeCl3 simulation” value is 100.25 ± 1.19. Further, the “recovery of brain blood flow (in words)” value in assay [2] (high-dose T541 or tPA simply given, T141, T582 with tPA) is on record as “no obvious recovery of the brain blood flow”. Moreover, in assay [2] (setting [4]), the “Cerebral blood flow, 5.5 hours after FeCl3 simulation (1 hour after administration)” value is recorded as 47.56 ± 6.13; the “Cerebral blood flow, 6.5 hours after FeCl3 simulation (2 hours after administration)” value was 41.46 ± 4.49; the “Cerebral blood flow, 28.5 hours after FeCl3 simulation (24 hours after administration)” value was 42.40 ± 4.61. In assay [2] (start of administration, groups: tPA 10 mg/kg alone, T541 20 mg/kg, T141 12 mg/kg, T582 15 mg/kg each + tPA 10 mg/kg), the “Cerebral blood flow, 4.5 hours after FeCl3 simulation” value is on record as 49.58 ± 7.44.
